ChEMBL document CHEMBL1156531, “Designer enediynes generate DNA breaks, interstrand cross-links, or both, with concomitant changes in the regulation of DNA damage responses” (2007)
Active and inactive are the calls of the source. No cut-off for these calls is given here.

Tests used:
BSC-1 [1] = assay: Induction of double-strand DNA break in SV40-infected african green monkey BSC1 cells assessed as amount of linear DNA after 4 hrs; format: cell-based; details: Betapolyomavirus macacae
[2] = target: T1, Serine/threonine-protein kinase Chk1 (Homo sapiens) (UniProt O14757); assay: Decrease in Chk1-Ser-345 phosphorylation in ataxia telangiectasia mutated and Rad3 related-deficient human HCT116 cells at 3 nM after 1 hr by Western blotting; format: cell-based; details: HCT-116
T1 sequence (whole entry): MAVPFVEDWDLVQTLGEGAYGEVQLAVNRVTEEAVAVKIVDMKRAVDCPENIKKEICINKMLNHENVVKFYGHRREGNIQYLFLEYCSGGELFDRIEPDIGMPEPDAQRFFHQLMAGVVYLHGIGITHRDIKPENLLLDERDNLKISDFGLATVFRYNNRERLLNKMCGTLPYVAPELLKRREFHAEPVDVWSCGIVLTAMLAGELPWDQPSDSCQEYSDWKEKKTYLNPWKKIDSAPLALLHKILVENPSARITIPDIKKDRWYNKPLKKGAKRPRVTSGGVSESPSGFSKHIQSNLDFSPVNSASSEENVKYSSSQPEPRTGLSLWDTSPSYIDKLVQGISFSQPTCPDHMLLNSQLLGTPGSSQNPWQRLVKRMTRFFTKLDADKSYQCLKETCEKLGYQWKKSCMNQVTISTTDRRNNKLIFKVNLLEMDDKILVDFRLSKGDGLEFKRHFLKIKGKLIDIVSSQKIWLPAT

BSC-1 [3] = assay: Induction of DNA interstand cross-link in SV40-infected african green monkey BSC1 cells assessed as amount of double-stranded DNA remaining after denaturation after 4 hrs; format: cell-based; details: Betapolyomavirus macacae
[4] = tested on: Bacillus amyloliquefaciens; assay: Induction of interstrand cross-link in BamH1-linearized pBR322 plasmid DNA assessed as amount of double-stranded DNA remaining after denaturation relative to C-1027
HCT-116 [5] = assay: Ratio of IC50 for mock siRNA-treated human HCT116 cells to IC50 for siATR (ataxia telangiectasia mutated and Rad3 related)-treated human HCT116 cells after 3 days; format: functional
[6] = Induction of double-strand break in BamH1-linearized pBR322 plasmid DNA assessed as linear DNA under aerobic condition relative to C-1027; details: Bacillus amyloliquefaciens
BSC-1 [7] = assay: Increase in DNA interstand cross-link in SV40-infected african green monkey BSC1 cells assessed as amount of double-stranded DNA remaining after denaturation at 200 nM after 4 hrs; format: cell-based; details: Betapolyomavirus macacae
HCT-116 [8] = assay: Induction of double-strand DNA break in human HCT116 cells after 4 hrs by comet assay; format: cell-based
BSC-1 [9] = assay: Induction of double-strand DNA break in SV40-infected african green monkey BSC1 cells assessed as amount of linear DNA at 10 uM after 4 hrs; format: cell-based; details: Betapolyomavirus macacae
HCT-116 [10] = assay: Induction of DNA interstand cross-link in human HCT116 cells after 4 hrs by comet assay; format: cell-based
BSC-1 [11] = assay: Induction of double-strand DNA break in SV40-infected african green monkey BSC1 cells assessed as amount of linear DNA at 8 nM after 4 hrs; format: cell-based; details: Betapolyomavirus macacae
[12] = target: T1, Serine/threonine-protein kinase Chk1 (Homo sapiens); assay: Decrease in Chk1-Ser-345 phosphorylation in ataxia telangiectasia mutated and Rad3 related-deficient human HCT116 cells at 1 nM after 1 hr by Western blotting; format: cell-based; details: HCT-116
BSC-1 [13] = assay: Induction of DNA interstand cross-link in SV40-infected african green monkey BSC1 cells assessed as amount of double-stranded DNA remaining after denaturation at 40 nM after 4 hrs; format: cell-based; details: Betapolyomavirus macacae
[14] = tested on: Bacillus amyloliquefaciens; assay: Induction of interstrand cross-link in BamH1-linearized pBR322 plasmid DNA assessed as amount of double-stranded DNA remaining at 130 nM after 4 hrs under anaerobic cell-free condition
[15] = tested on: Bacillus amyloliquefaciens; assay: Induction of interstrand cross-link in BamH1-linearized pBR322 plasmid DNA assessed as amount of double-stranded DNA remaining at 13 nM after 4 hrs under anaerobic cell-free condition

SMILES	Activity (BSC-1 [1])	Activity [2]	Activity (BSC-1 [3])	Activity [4] [%]	Ratio IC50 (HCT-116 [5])	Activity [6] [%]	Activity (BSC-1 [7])	Activity (HCT-116 [8])	Activity (BSC-1 [9])	Activity (HCT-116 [10])	Activity (BSC-1 [11]) [%]	Activity [12]	Activity (BSC-1 [13])	Activity [14] [%]	Activity [15] [%]
C=C1Oc2cc(OC)cc(C(=O)O[C@H]3COC(=O)C[C@H](N)c4ccc(c(O)c4)O[C@@H]4C#C/C=C/3C#CC3=CC=C[C@@]34O[C@@H]3OC(C)(C)[C@@H](N(C)C)[C@@H](O)[C@H]3O)c2NC1=O	Dose-dependent effect	Active	inactive	< 0.003	1.3	0.25	–	–	–	–	–	–	–	–	–
C=C1Oc2cc(OC)cc(C(=O)O[C@H]3COC(=O)C[C@H](N)c4ccc(c(Cl)c4)O[C@@H]4C#C/C=C/3C#CC3=CC=C[C@@]34O[C@@H]3OC(C)(C)[C@@H](N(C)C)[C@@H](O)[C@H]3O)c2NC1=O	–	–	–	–	–	0.033	–	–	–	–	–	–	–	–	–
C=C1Oc2cc(O)cc(C(=O)O[C@H]3COC(=O)C[C@H](N)c4cc(O)c(c(Cl)c4)O[C@@H]4C#C/C=C/3C#CC3=CC=C[C@@]34O[C@@H]3OC(C)(C)[C@@H](N(C)C)[C@@H](O)[C@H]3O)c2NC1=O	–	–	–	1	2.5	0.02	Active	inactive	inactive	Active	–	–	–	–	–
C=C1Oc2cc(OC)cc(C(=O)O[C@H]3COC(=O)C[C@H](N)c4cc(O)c(c(Cl)c4)O[C@@H]4C#C/C=C/3C#CC3=CC=C[C@@]34O[C@@H]3OC(C)(C)[C@@H](N(C)C)[C@@H](O)[C@H]3O)c2NC1=O	–	–	–	1	1.1	1	Active	inactive	–	Active	20	Active	Active	> 30	13
